Assay results: ChEMBL document CHEMBL3603745, “Synthesis of ciprofloxacin dimers for evaluation of bacterial permeability in atypical chemical space” (Bioorg Med Chem Lett, 2015)
Converted amounts (≈) assume the structure as drawn.

Tests used:
Escherichia coli [1] = test: Antibacterial activity against tolC-deficient Escherichia coli NB27005-CDY0039 expressing gyrA S83L […], parC S80I mutant by broth microdilution method; type: functional
Staphylococcus aureus [2] = test: Antibacterial activity against wild type Staphylococcus aureus ATCC 29213 by broth microdilution method; type: functional
Escherichia coli [3] = test: Antibacterial activity against wild type Escherichia coli ATCC 25922 by broth microdilution method; type: functional
Escherichia coli [4] = test: Antibacterial activity against wild type Escherichia coli MC4100 by broth microdilution method; type: functional
Staphylococcus aureus [5] = test: Antibacterial activity against fluoroquinolone-resistant Staphylococcus aureus NB01006-AVR005 harboring gyrA S84L, parC S80F, parE E471K by broth microdilution method; type: functional
Escherichia coli [6] = test: Antibacterial activity against Escherichia coli imp-4213 by broth microdilution method; type: functional
Pseudomonas aeruginosa [7] = test: Antibacterial activity against mexX, mexB deficient Pseudomonas aeruginosa NB52023-CDK006 harboring gyrAT83I and parC S87L by broth microdilution method; type: functional
Escherichia coli [8] = test: Antibacterial activity against wild type Escherichia coli BW5328/pAH69 by broth microdilution method; type: functional
Pseudomonas aeruginosa [9] = test: Antibacterial activity against mexX, mexB deficient Pseudomonas aeruginosa NB52023-CDK005 harboring gyrAT83I by broth microdilution method; type: functional
[10] = Inhibition of Escherichia coli recombinant gyrase A2B2 assessed as reduction of pHOT-1 supercoiling after 90 mins
Staphylococcus aureus [11] = test: Antibacterial activity against wild type methicillin-susceptible Staphylococcus aureus ATCC 49951 by broth microdilution method; type: functional
Escherichia coli [12] = test: Antibacterial activity against fluoroquinolone-resistant Escherichia coli CH10 harboring gyrA S83L D87N, parC S80I E84G, AcrA+ by broth microdilution method; type: functional
Pseudomonas aeruginosa [13] = test: Antibacterial activity against Pseudomonas aeruginosa K1542 deficient with mexX, mexB by broth microdilution method; type: functional
Pseudomonas aeruginosa [14] = test: Antibacterial activity against wild type Pseudomonas aeruginosa PAO1 by broth microdilution method; type: functional
Escherichia coli [15] = test: Antibacterial activity against tolC-deficient Escherichia coli JW5503-1 by broth microdilution method; type: functional

SMILES | MIC (Escherichia coli [1]) [µg/mL] | MIC (Staphylococcus aureus [2]) [µg/mL] | MIC (Escherichia coli [3]) [µg/mL] | MIC (Escherichia coli [4]) [µg/mL] | MIC (Staphylococcus aureus [5]) [µg/mL] | MIC (Escherichia coli [6]) [µg/mL] | MIC (Pseudomonas aeruginosa [7]) [µg/mL] | MIC (Escherichia coli [8]) [µg/mL] | MIC (Pseudomonas aeruginosa [9]) [µg/mL] | IC50 [10] [µM] | MIC (Staphylococcus aureus [11]) [µg/mL] | MIC (Escherichia coli [12]) [µg/mL] | MIC (Pseudomonas aeruginosa [13]) [µg/mL] | MIC (Pseudomonas aeruginosa [14]) [µg/mL] | MIC (Escherichia coli [15]) [µg/mL]
C=CCN1CCN(c2cc3c(cc2F)c(=O)c(C(=O)O)cn3C2CC2)CC1 | 2 (≈ 5.38 µM) | 0.125 (≈ 0.337 µM) | ≤ 0.03 | 0.06 (≈ 0.162 µM) | 32 (≈ 86.2 µM) | ≤ 0.03 | 32 (≈ 86.2 µM) | 0.06 (≈ 0.162 µM) | 4 (≈ 10.8 µM) | 0.58 | 0.125 (≈ 0.337 µM) | > 32 | 0.25 (≈ 0.673 µM) | 1 (≈ 2.69 µM) | ≤ 0.03
O=CN1CCN(c2cc3c(cc2F)c(=O)c(C(=O)O)cn3C2CC2)CC1 | 4 (≈ 11.1 µM) | 0.25 (≈ 0.696 µM) | 0.125 (≈ 0.348 µM) | 0.25 (≈ 0.696 µM) | 32 (≈ 89 µM) | ≤ 0.03 | 32 (≈ 89 µM) | 0.125 (≈ 0.348 µM) | 16 (≈ 44.5 µM) | 0.25 | 0.25 (≈ 0.696 µM) | > 32 | 0.25 (≈ 0.696 µM) | 2 (≈ 5.57 µM) | ≤ 0.03
O=C(O)c1cn(C2CC2)c2cc(N3CCN(Cc4cccc(CN5CCN(c6cc7c(cc6F)c(=O)c(C(=O)O)cn7C6CC6)CC5)c4)CC3)c(F)cc2c1=O | > 32 | 0.5 (≈ 0.654 µM) | 1 (≈ 1.31 µM) | 2 (≈ 2.61 µM) | 32 (≈ 41.8 µM) | ≤ 0.03 | > 32 | 2 (≈ 2.61 µM) | > 32 | 1.18 | 0.25 (≈ 0.327 µM) | > 32 | 8 (≈ 10.5 µM) | 32 (≈ 41.8 µM) | 0.06 (≈ 0.0784 µM)
O=C(CCN1CCN(c2cc3c(cc2F)c(=O)c(C(=O)O)cn3C2CC2)CC1)NCCOCCOCCNC(=O)CCN1CCN(c2cc3c(cc2F)c(=O)c(C(=O)O)cn3C2CC2)CC1 | > 32 | > 32 | 8 (≈ 8.71 µM) | 8 (≈ 8.71 µM) | > 32 | 4 (≈ 4.35 µM) | > 32 | 8 (≈ 8.71 µM) | > 32 | 2.14 | > 32 | > 32 | > 32 | > 32 | 1 (≈ 1.09 µM)
O=C(O)c1cn(C2CC2)c2cc(N3CCN(CCOCCOCCN4CCN(c5cc6c(cc5F)c(=O)c(C(=O)O)cn6C5CC5)CC4)CC3)c(F)cc2c1=O | > 32 | 16 (≈ 20.6 µM) | 2 (≈ 2.57 µM) | 2 (≈ 2.57 µM) | > 32 | 0.5 (≈ 0.644 µM) | > 32 | 2 (≈ 2.57 µM) | > 32 | 28.2 | 16 (≈ 20.6 µM) | > 32 | 8 (≈ 10.3 µM) | 32 (≈ 41.2 µM) | 0.25 (≈ 0.322 µM)
O=C(O)c1cn(C2CC2)c2cc(N3CCN(CCOCCOCCOCCN4CCN(c5cc6c(cc5F)c(=O)c(C(=O)O)cn6C5CC5)CC4)CC3)c(F)cc2c1=O | > 32 | 16 (≈ 19.5 µM) | 1 (≈ 1.22 µM) | 1 (≈ 1.22 µM) | > 32 | 0.25 (≈ 0.305 µM) | > 32 | 1 (≈ 1.22 µM) | 32 (≈ 39 µM) | 4.04 | 8 (≈ 9.75 µM) | > 32 | 32 (≈ 39 µM) | 16 (≈ 19.5 µM) | 0.125 (≈ 0.152 µM)
O=C(O)c1cn(C2CC2)c2cc(N3CCN(C(=O)OCCOCCOCCOC(=O)N4CCN(c5cc6c(cc5F)c(=O)c(C(=O)O)cn6C5CC5)CC4)CC3)c(F)cc2c1=O | 32 (≈ 37 µM) | 4 (≈ 4.63 µM) | 16 (≈ 18.5 µM) | 16 (≈ 18.5 µM) | > 32 | 0.25 (≈ 0.289 µM) | > 32 | 16 (≈ 18.5 µM) | > 32 | 7.25 | 2 (≈ 2.31 µM) | > 32 | 16 (≈ 18.5 µM) | > 32 | 0.125 (≈ 0.145 µM)
O=C(O)c1cn(C2CC2)c2cc(N3CCN(CCOCCOCCOCCOCCOCCN4CCN(c5cc6c(cc5F)c(=O)c(C(=O)O)cn6C5CC5)CC4)CC3)c(F)cc2c1=O | > 32 | 8 (≈ 8.8 µM) | 2 (≈ 2.2 µM) | 4 (≈ 4.4 µM) | > 32 | 0.125 (≈ 0.138 µM) | > 32 | 2 (≈ 2.2 µM) | > 32 | 10 | 2 (≈ 2.2 µM) | > 32 | 8 (≈ 8.8 µM) | 32 (≈ 35.2 µM) | 0.125 (≈ 0.138 µM)
O=C(O)c1cn(C2CC2)c2cc(N3CCN(CCOCCOCCOCCOCCOCCOCCOCCN4CCN(c5cc6c(cc5F)c(=O)c(C(=O)O)cn6C5CC5)CC4)CC3)c(F)cc2c1=O | 8 (≈ 8.02 µM) | 4 (≈ 4.01 µM) | 2 (≈ 2.01 µM) | 4 (≈ 4.01 µM) | > 32 | 4 (≈ 4.01 µM) | > 32 | 4 (≈ 4.01 µM) | > 32 | 1.38 | 1 (≈ 1 µM) | > 32 | 16 (≈ 16 µM) | 16 (≈ 16 µM) | 0.125 (≈ 0.125 µM)
